Results as given in patent US4242329A, “Bradykinin-inhibiting tripeptide derivatives” (AB Kabi, priority 1978, dated 1980).
Non-standard residues stand in square brackets, D forms with d. Residues, ends and D or L forms follow the SMILES beside them.

Test system: isolated rat uterus
Assay: Bradykinin-inhibiting activity on isolated rat uterus (contraction at ED70 of bradykinin)
Format: cell-based
Conditions: for Inhibition of bradykinin effect, %: against ED70 of bradykinin, isolated rat uterus; for Duration of inhibition: time until bradykinin again gives the original contraction
Experimental: The bradykinin-inhibiting activity of the new tripeptide derivatives is evident from the following disclosure of the biological evaluation on isolated organs. The bradykinin-inhibiting activity is studied on isolated rat uterus. The rats are pretreated subcutanous with 0.2 mg/kg of diethyl stilbestrol, 12-15 hours prior to the experiment. The muscle from uterus which is longitudinally sectioned into halves is arranged in a smooth muscle bath with de Jalon's buffer (de Jalon et al., Farmacother.Acta, Vol. 3, p. 313, 1945), oxygenated with carbogene gas (5% carbon dioxide, 95% oxygen). The temperature is maintained at 35° C. The muscle is stretched with a tension corresponding to 0.5 g. The isometric tension is measured with Grass (FT 03C) force transmitter connected to a Grass polygraph.
Muscle contractions for bradykinin in bath concentrations of 10^-11 -10^-6 M (mole/liter) are registrated, and thereafter the concentration of bradykinin which induces 70% of maximum muscle contraction (ED70) is evaluated. The bradykinin inhibiting activity is then tested with the tripeptide derivatives in bath concentrations of 10^-8, 10^-7, 10^-6 and 10^-5 M, against the ED70 for bradykinin of resp. muscle. For each concentration the tripeptide derivatives are incubated with the uterus tissue 5 and 10 minutes resp. before the addition of bradykinin. The bradykinin-inhibiting activity is expressed as the time in minutes required until bradykinin again gives the original contraction. Each addition of bradykinin is followed by washing with the buffer.

[1] = conc. in test bath 10^-5 mole/liter
[2] = conc. in test bath 10^-6 mole/liter
[3] = conc. in test bath 10^-7 mole/liter
[4] = conc. in test bath 10^-8 mole/liter

CCCCCCCNC(=O)[C@H](CCCNC(=N)N)NC(=O)[C@H](Cc1ccccc1)NC(=O)[C@H]1CCCN1 [Example II, H-D-Pro-Phe-Arg-NH-heptyl]
Inhibition of bradykinin effect, % [1]: 100%
Duration of inhibition [1]: 45 min
Inhibition of bradykinin effect, % [2]: 100%
Duration of inhibition [2]: 30 min
Inhibition of bradykinin effect, % [3]: 15%
Duration of inhibition [3]: 20 min
Inhibition of bradykinin effect, % [4]: 15%
Duration of inhibition [4]: 15 min

N=C(N)NCCC[C@H](NC(=O)[C@H](Cc1ccccc1)NC(=O)[C@H]1CCCN1)C(N)=O [Example III, H-D-Pro-Phe-Arg-NH2] (H-[dP]-Phe-Arg-NH2)
Inhibition of bradykinin effect, % [1]: 100%
Duration of inhibition [1]: 50 min
Inhibition of bradykinin effect, % [2]: 100%
Duration of inhibition [2]: 30 min
Inhibition of bradykinin effect, % [3]: 15%
Duration of inhibition [3]: 15 min
Inhibition of bradykinin effect, % [4]: 15%
Duration of inhibition [4]: 15 min

CCCCCCCOC(=O)[C@H](CCCNC(=N)N)NC(=O)[C@H](Cc1ccccc1)NC(=O)[C@H]1CCCN1 [Example I, H-D-Pro-Phe-Arg-O-heptyl]
Inhibition of bradykinin effect, % [1]: 100%
Duration of inhibition [1]: 35 min
Inhibition of bradykinin effect, % [2]: 100%
Duration of inhibition [2]: 15 min
Inhibition of bradykinin effect, % [3]: 10%
Duration of inhibition [3]: 15 min
Inhibition of bradykinin effect, % [4]: 10%
Duration of inhibition [4]: 15 min
